# Experimental data from ChEMBL document CHEMBL4602626, “Structure activity relationship, 6-modified purine riboside analogues to activate hSTING, stimulator of interferon genes” (Bioorg Med Chem Lett, 2020).
# Calls of active or inactive are those of the source. The calls are words filed in the database; no cut-off is given here.
# Target: Stimulator of interferon genes protein (Homo sapiens) (UniProt Q86WV6)
# Experiment: Activation of human STING expressed in monocytes co-expressing IFN assessed as alkaline phosphatase secretion in presence of adenosine kinase inhibitor 5-iodotubercidin by SEAP reporter gene assay
# Type: cell-based
# Chain of Stimulator of interferon genes protein (Homo sapiens) (Q86WV6 whole entry): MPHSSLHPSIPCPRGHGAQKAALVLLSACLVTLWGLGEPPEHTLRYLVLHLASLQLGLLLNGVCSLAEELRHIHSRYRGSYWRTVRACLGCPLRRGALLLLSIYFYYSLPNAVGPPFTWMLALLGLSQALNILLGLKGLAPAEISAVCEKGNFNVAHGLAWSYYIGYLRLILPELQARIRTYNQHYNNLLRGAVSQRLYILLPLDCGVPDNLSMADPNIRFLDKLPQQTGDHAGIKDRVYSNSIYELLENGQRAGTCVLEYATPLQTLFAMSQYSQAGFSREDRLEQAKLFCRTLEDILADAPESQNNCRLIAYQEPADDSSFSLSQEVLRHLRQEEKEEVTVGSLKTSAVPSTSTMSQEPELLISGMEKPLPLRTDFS
row,SMILES,Activity
1,CCOc1ncnc2c1ncn2[C@@H]1O[C@H](CO)[C@@H](O)[C@H]1O,inactive

# Target: Stimulator of interferon genes protein (Homo sapiens) (UniProt Q86WV6)
# Experiment: Activation of human STING expressed in monocytes co-expressing IFN assessed as alkaline phosphatase secretion by SEAP reporter gene assay
# Type: cell-based
row,SMILES,Activity
1,OC[C@H]1O[C@@H](n2cnc3c(OCc4ccccc4)ncnc32)[C@H](O)[C@@H]1O,inactive
2,CN(C)/C=N/c1nc2c(ncn2[C@@H]2O[C@H](CO)[C@@H](O)[C@H]2O)c(=O)[nH]1,inactive
3,COCCNc1ncnc2c1ncn2[C@@H]1O[C@H](CO)[C@@H](O)[C@H]1O,Active
4,CCOc1ncnc2c1ncn2[C@H]1C[C@H](O)[C@@H](CO)O1,inactive
5,CCOc1ncnc2c1ncn2[C@@H]1O[C@H](COC(=O)[C@@H](N)C(C)C)[C@@H](O)[C@H]1O,Active
6,CN(C)/C=N/c1ncnc2c1ncn2[C@@H]1O[C@H](CO)[C@@H](O)[C@H]1O,Active
7,OC[C@H]1O[C@@H](n2cnc3c(NCc4ccc(-c5ccccc5)cc4)ncnc32)[C@H](O)[C@@H]1O,Active
8,CCCOc1ncnc2c1ncn2[C@@H]1O[C@H](CO)[C@@H](O)[C@H]1O,Active
9,CC(C)CNc1ncnc2c1ncn2[C@@H]1O[C@H](CO)[C@@H](O)[C@H]1O,Active
10,OC[C@H]1O[C@@H](n2cnc3c(NCc4ccccc4)ncnc32)[C@H](O)[C@@H]1O,Active
11,CCOc1ncnc2[nH]cnc12,inactive
12,CN(C)/C=N/c1ncnc2c1ncn2[C@H]1C[C@H](O)[C@@H](CO)O1,inactive
13,COc1ncnc2c1ncn2[C@@H]1O[C@H](CCl)[C@@H](O)[C@H]1O,inactive
14,CCCCC(=O)OC[C@H]1O[C@@H](n2cnc3c(OCC)ncnc32)[C@H](O)[C@@H]1O,Active
15,CCCCC(=O)OC[C@H]1O[C@@H](n2cnc3c(OCC)ncnc32)[C@H](OC(=O)CCCC)[C@@H]1OC(=O)CCCC,Active
16,CCOc1nc(N)nc2c1ncn2[C@@H]1O[C@H](CO)[C@@H](O)[C@H]1O,inactive
17,OC[C@H]1O[C@@H](n2cnc3c(OCC(F)F)ncnc32)[C@H](O)[C@@H]1O,Active
18,CN(C)/C=N/c1ccn([C@@H]2O[C@H](CO)[C@@H](O)[C@H]2O)c(=O)n1,inactive
19,CCOc1ncnc2c1ncn2[C@@H]1O[C@H](CO)[C@@H](O)[C@H]1O,Active
20,CC(C)Oc1ncnc2c1ncn2[C@@H]1O[C@H](CO)[C@@H](O)[C@H]1O,inactive
21,CCOc1ncnc2c1ncn2[C@@H]1O[C@H](COC(=O)C(C)C)[C@@H](OC(=O)C(C)C)[C@H]1OC(=O)C(C)C,Active
22,CCNc1ncnc2c1ncn2[C@@H]1O[C@H](CO)[C@@H](O)[C@H]1O,Active
23,CN(C)/C=N/c1ncnc2[nH]cnc12,inactive
24,CCOc1ncnc2c1ncn2[C@@H]1O[C@H](COP(=O)(N[C@@H](C)C(=O)OC(C)C)Oc2ccccc2)[C@@H](O)[C@H]1O (some centres undefined),Active
25,OC[C@H]1O[C@@H](n2cnc3c(OCC(F)(F)F)ncnc32)[C@H](O)[C@@H]1O,Active
26,CN(C)CCNc1ncnc2c1ncn2[C@@H]1O[C@H](CO)[C@@H](O)[C@H]1O,Active
27,C=CCNc1ncnc2c1ncn2[C@@H]1O[C@H](CO)[C@@H](O)[C@H]1O,Active

# Target: Stimulator of interferon genes protein (Homo sapiens) (UniProt Q86WV6)
# Experiment: Activation of human STING expressed in monocytes co-expressing IFN assessed as alkaline phosphatase secretion in presence of adenosine deaminase inhibitor erytftro-9-(2-hydroxy-3-nonyl) adenine by SEAP reporter gene assay
# Type: cell-based
row,SMILES,Activity
1,CCOc1ncnc2c1ncn2[C@@H]1O[C@H](CO)[C@@H](O)[C@H]1O,Active
